Measured values reported in US20220298163A1, “BTK INHIBITORS WITH IMPROVED DUAL SELECTIVITY” (BEIGENE, LTD., priority 2017, published 2022).

Key:
[1] = Rat pharmacokinetic study; assay type: in vivo, Male Sprague Dawley rats; details: for AUC(0-inf) / bioavailability / clearance / Cmax: male, Sprague Dawley, plasma, rat; for AUC(0-inf): IV 1 mg·kg^−1 / PO 5 mg·kg^−1 study, route not given; for bioavailability: oral bioavailability, PO 5 mg·kg^−1 vs IV 1 mg·kg^−1; for clearance: single IV 1 mg·kg^−1; for Cmax: single PO 5 mg·kg^−1
[2] = other Btk inhibitors, meeting abstract 2016; cited from earlier work
[3] = molecular target: T1, phosphorylated Btk at Tyr223 (Homo sapiens, UniProt Q06187); experiment: Btk pY223 cellular assay (HTRF, Ramos cells); assay type: cell-based; details: compound 3 hours, pervanadate or Na3VO4 stimulation, read-out: IC50 (nM) in cell Btk pY223
T1 construct: determine the endogenous levels of phosphorylated Btk at Tyr223; endogenous in cells; host or cells: Ramos cells (CRL-1596, ATCC)
T1 sequence (Q06187 whole entry): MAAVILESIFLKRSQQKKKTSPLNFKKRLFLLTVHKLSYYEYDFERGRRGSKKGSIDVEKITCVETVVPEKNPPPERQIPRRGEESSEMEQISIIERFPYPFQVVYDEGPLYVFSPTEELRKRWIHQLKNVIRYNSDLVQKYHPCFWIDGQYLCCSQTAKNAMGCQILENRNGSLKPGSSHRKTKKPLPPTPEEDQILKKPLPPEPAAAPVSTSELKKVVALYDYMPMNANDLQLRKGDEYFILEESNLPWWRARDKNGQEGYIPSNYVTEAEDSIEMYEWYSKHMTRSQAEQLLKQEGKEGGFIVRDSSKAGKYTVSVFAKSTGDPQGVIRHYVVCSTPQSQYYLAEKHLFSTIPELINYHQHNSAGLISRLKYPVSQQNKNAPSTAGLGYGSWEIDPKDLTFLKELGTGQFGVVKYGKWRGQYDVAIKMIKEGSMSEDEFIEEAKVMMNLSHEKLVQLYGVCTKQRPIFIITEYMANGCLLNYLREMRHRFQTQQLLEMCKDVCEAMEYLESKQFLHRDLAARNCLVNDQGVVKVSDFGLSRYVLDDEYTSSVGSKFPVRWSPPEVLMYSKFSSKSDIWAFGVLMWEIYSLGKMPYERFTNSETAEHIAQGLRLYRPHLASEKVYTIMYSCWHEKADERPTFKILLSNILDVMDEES
Method: Btk pY223 cellular assay is an HTRF based assay intended to determine the endogenous levels of phosphorylated Btk at Tyr223.
Briefly, Ramos cells were serum starved in 0.5% FBS-containing RPMI1640 overnight. The cells were then incubated with interested compounds at various concentrations in a CO2 incubator for 3 hours. After the incubation, cells were stimulated with 1 mM pervanadate (PV) or Na3VO4 (OV) for 20 min. Then, the cells were collected and lysed with 1× lysis buffer at RT for 10 min (4× lysis buffer supplied in the kit). 1× antibody mix was prepared by diluting anti-Btk-d2 and anti-pBtk-K in detection buffer (supplied in the kit). […] After mixing gently and spinning briefly, the plate was sealed up and kept in dark at RT for 18 hours. […] IC50 values were calculated with GraphPad Prism software using the sigmoidal dose-response function.

EGFR = EGFR (Homo sapiens, UniProt P00533); experiment: Biochemical kinase selectivity: IC50 determination of EGFR; details: for IC50: TR-FRET, 20 μM ATP; for Fold of EGFR/Btk: ratio of IC50 values
EGFR, sequence (P00533 25-1210): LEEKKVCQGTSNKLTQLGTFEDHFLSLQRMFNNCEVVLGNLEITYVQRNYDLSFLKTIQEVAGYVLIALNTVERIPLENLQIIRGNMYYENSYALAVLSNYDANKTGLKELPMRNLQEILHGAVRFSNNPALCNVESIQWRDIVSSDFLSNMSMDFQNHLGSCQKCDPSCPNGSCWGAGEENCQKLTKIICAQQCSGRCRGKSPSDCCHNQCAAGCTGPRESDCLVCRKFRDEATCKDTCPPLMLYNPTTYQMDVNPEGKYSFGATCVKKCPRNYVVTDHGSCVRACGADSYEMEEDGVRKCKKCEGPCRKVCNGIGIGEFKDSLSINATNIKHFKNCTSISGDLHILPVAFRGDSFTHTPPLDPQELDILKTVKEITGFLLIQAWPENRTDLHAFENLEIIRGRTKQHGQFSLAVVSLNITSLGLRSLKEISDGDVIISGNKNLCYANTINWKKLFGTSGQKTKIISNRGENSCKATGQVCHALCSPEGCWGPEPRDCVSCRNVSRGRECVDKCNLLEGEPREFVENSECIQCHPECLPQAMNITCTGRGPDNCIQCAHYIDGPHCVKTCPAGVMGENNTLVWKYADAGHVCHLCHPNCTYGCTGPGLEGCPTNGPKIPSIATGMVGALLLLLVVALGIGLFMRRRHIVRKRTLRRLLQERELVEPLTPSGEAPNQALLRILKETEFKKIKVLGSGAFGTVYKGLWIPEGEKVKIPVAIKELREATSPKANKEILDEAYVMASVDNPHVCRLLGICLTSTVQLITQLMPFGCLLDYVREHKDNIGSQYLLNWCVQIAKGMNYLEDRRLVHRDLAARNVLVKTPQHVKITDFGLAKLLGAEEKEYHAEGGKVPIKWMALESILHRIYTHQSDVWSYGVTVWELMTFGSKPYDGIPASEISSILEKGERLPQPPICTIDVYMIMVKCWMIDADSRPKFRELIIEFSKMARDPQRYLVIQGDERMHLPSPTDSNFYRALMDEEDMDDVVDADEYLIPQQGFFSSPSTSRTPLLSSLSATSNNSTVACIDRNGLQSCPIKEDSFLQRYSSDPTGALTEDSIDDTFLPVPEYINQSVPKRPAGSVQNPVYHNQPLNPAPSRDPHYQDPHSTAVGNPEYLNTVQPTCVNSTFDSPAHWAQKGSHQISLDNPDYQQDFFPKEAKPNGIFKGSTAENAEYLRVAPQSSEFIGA

Tec = molecular target: T2, Tec (Homo sapiens, UniProt P42680); experiment: Biochemical kinase selectivity: IC50 determination of Tec; details: for IC50: TR-FRET, 280 μM ATP; for Fold of Tec/Btk: ratio of IC50 values
T2 sequence (P42680 1-631): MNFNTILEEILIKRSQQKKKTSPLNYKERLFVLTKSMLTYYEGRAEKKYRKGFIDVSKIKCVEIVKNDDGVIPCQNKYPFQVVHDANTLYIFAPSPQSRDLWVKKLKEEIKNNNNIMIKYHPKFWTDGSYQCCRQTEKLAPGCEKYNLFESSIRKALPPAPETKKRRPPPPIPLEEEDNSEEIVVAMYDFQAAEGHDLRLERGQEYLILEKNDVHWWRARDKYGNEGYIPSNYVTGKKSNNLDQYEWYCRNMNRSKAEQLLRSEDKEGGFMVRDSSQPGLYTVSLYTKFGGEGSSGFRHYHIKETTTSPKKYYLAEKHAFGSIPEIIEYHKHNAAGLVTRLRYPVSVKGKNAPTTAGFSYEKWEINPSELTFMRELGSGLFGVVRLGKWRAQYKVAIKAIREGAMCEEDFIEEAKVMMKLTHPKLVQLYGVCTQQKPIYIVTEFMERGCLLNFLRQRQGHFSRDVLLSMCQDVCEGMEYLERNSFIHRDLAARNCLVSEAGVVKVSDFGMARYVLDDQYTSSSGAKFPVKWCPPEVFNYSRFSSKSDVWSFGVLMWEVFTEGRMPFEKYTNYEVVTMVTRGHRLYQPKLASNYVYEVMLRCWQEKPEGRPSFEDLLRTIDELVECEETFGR

[4] = molecular target: T3, Btk kinase (aa2-659, Carna Biosciences) (Homo sapiens, UniProt Q06187); experiment: Btk kinase enzymatic assay (TR-FRET); assay type: biochemical; details: for IC50: TR-FRET, 30 μM ATP, compound incubated with kinase 60 minutes
T3 construct: purchased Carna Biosciences
T3 sequence (Q06187 2-659): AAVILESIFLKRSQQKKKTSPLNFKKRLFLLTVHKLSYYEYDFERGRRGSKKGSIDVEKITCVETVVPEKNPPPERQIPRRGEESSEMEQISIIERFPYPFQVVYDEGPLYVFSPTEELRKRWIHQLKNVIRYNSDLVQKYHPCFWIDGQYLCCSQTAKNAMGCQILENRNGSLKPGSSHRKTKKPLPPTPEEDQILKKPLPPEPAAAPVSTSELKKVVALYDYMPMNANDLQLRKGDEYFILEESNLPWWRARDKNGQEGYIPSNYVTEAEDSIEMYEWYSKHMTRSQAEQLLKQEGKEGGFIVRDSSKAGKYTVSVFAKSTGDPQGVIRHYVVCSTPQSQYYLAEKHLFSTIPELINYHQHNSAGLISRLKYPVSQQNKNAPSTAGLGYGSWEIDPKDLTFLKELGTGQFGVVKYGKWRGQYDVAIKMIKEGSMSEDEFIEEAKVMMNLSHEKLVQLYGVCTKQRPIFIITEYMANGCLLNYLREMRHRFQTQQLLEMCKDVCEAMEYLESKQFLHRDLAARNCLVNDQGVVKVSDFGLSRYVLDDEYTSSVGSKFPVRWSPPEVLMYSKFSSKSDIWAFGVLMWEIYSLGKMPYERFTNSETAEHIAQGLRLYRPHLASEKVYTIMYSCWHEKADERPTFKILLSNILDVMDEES

Row | Compound | AUC(0-inf) [1] [ng·h/mL] | bioavailability [1] [%] | clearance [1] [mL/min/kg] | Cmax [1] [ng/mL] | plasma clearance, Cmax, AUC and oral bioavailability compared to compound 167* ([1]; rat PK study, Table IV) | bleeding adverse event (in words) [2] | IC50 [3] [nM] | IC50 (EGFR) [nM] | IC50 (Tec) [nM] | affinity / inhibitory activity for Btk (in words) [4] | IC50 [4] [nM] | Fold of EGFR/Btk (EGFR) [fold] | Fold of Tec/Btk (Tec) [fold]
1 | C=CC(=O)N1CCC(C2CCNc3c(C(N)=O)c(-c4cc(OC)c(C5CC5)c(OC)c4)nn32)CC1 (single isomer, unassigned) [Example A2a, (S or R)-7-(1-acryloylpiperidin-4-yl)-2-(4-cyclopropyl-3,5-dimethoxyphenyl)-4,5,6,7-tetrahydropyrazolo[1,5-a]pyrimidine-3-carboxamide] | 1710 | 73.7 | 42.8 | 859 | lower plasma clearance values, higher Cmax, AUC and oral bioavailability |  |  |  |  |  |  |  | 
2 | CC#CC(=O)N1CC[C@@H](n2c(=O)n(-c3ccc(Oc4ccccc4)cc3)c3c(N)ncnc32)C1 [ONO-4059] |  |  |  |  |  | Bleeding as a common adverse event (AE) |  |  |  |  |  |  | 
3 | C=CC(=O)N1CCC([C@@H]2CCNc3c(C(N)=O)c(-c4ccc(Oc5ccccc5)cc4)nn32)CC1 [BGB-3111] |  |  |  |  |  | Bleeding as a common adverse event (AE) |  |  |  |  |  |  | 
4 | CC#CC(=O)N1CCC[C@H]1c1nc(-c2ccc(C(=O)Nc3ccccn3)cc2)c2c(N)nccn12 [ACP-196] |  |  |  |  |  | Bleeding as a common adverse event (AE) |  |  |  |  |  |  | 
5 | C=CC(=O)Nc1ccccc1C1CCNc2c(C(N)=O)c(-c3cc(OC)c(OC)c(OC)c3)nn21 (stereo not drawn) [167^#] | 65.1 | 11.8 | 152 | 60.4 |  |  | 83.5 | 9.5 | 157 |  |  |  | 
6 | C=CC(=O)N1CCC(C2CCNc3c(C(N)=O)c(-c4cc(C)c(C)c(OC)c4)nn32)CC1 (stereo not drawn) [Example A34, 7-(1-acryloylpiperidin-4-yl)-2-(3-methoxy-4,5-dimethylphenyl)-4,5,6,7-tetrahydropyrazolo[1,5-a]pyrimidine-3-carboxamide] |  |  |  |  |  |  | 41.8 | 405 | 207 | high affinity for Btk | 1.8 | 225 | 115
7 | C=CC(=O)N1CC(C2CCNc3c(C(N)=O)c(-c4cc(OC)c(Br)c(OC)c4)nn32)C1 (stereo not drawn) [Example B2, 7-(1-acryloylazetidin-3-yl)-2-(4-bromo-3,5-dimethoxyphenyl)-4,5,6,7-tetrahydropyrazolo[1,5-a]pyrimidine-3-carboxamide] |  |  |  |  |  |  | 45.7 | 1750 | 172 |  | 5 | 350 | 34
8 | C=CC(=O)N1CCC(C2CCNc3c(C(N)=O)c(-c4cc(OC)c(/C=C/c5ccccc5)c(OC)c4)nn32)CC1 (stereo not drawn) [Example A41, (E)-7-(1-acryloylpiperidin-4-yl)-2-(3,5-dimethoxy-4-styrylphenyl)-4,5,6,7-tetrahydropyrazolo[1,5-a]pyrimidine-3-carboxamide] |  |  |  |  |  |  | 66.8 | 1510 | 101 |  | 3.3 | 458 | 31
9 | C=CC(=O)N1CCC(C2CCNc3c(C(N)=O)c(-c4cc(Cl)c(C)c(OC)c4)nn32)CC1 (stereo not drawn) [Example A35, 7-(1-acryloylpiperidin-4-yl)-2-(3-chloro-5-methoxy-4-methylphenyl)-4,5,6,7-tetrahydropyrazolo[1,5-a]pyrimidine-3-carboxamide] |  |  |  |  |  |  | 65 | 1150 | 174 |  | 2.3 | 500 | 75.6
10 | C=CC(=O)N1CC2CNc3c(C(N)=O)c(-c4cc(OC)c(C)c(OC)c4)nn3C2C1 (stereo not drawn) [Example C1, 7-acryloyl-2-(3,5-dimethoxy-4-methylphenyl)-5,5a,6,7,8,8a-hexahydro-4H-pyrazolo[1,5-a]pyrrolo[3,4-e]pyrimidine-3-carboxamide] |  |  |  |  |  |  | 49.6 | 536 | 380 | high affinity for Btk | 3.4 | 158 | 112
11 | C=CC(=O)N1CCC(C2CCNc3c(C(N)=O)c(-c4cc(OC)c(I)c(OC)c4)nn32)CC1 (stereo not drawn) [Example A8, 7-(1-acryloylpiperidin-4-yl)-2-(4-iodo-3,5-dimethoxyphenyl)-4,5, tetrahydropyrazolo[1,5-a]pyrimidine-3-carboxamide] |  |  |  |  |  |  | 14.8 | 1380 | 130 |  | 0.93 |  | 
